The results in this text go back to patent US20180318199A1, “Pharmaceutical Composition Having Anti-Aging Properties against High-Glucose” (TAIWAN LEADER BIOTECH CORP., priority 2017, published 2018).

Holding throughout (type): cell-based, human
In data set [1] the test system is p38 MAPK, JNK/SAPK, AKT and ERK1/2. Nature of the data set: Western blot of MAPK and AKT activation in HNDFs. As to conditions: ANM 10 μM or NAC 100 μM + HG 30 mM. On the procedure:
Next, the possible upstream regulators of p53 activation are examined. Previous studies have shown that p38 MAPK mediated p53 activation in response to intracellular ROS generation. In FIG. 4F, this effect is further extended to its upstream regulator p38 MAPK.
Cells are lysed by either RIPA lysis buffer or nuclear and cytoplasmic extraction reagents (Thermo Fisher Scientific). Protein concentrations are determined by Bio-Rad protein assay reagent (Bio-Rad Laboratories, Hercules, Calif.). Equal amounts of protein samples (60 μg) are separated by 7-12% SDS-PAGE and the separated proteins are transferred onto polyvinylidene […] (PVDC) membrane overnight. The transferred protein membranes are blocked with 5% non-fat dried milk for 30 min, followed by incubation with specific primary antibodies overnight, and either horseradish peroxidase-conjugated goat anti-rabbit or anti-mouse antibodies for 2 h. The blots are detected using VL Chemi-Smart 3000 (Viogene Biotek, Sunnyvale, Calif.) with the enhanced chemiluminescence (ECL) western blotting reagent (Millipore, Billerica, Mass.).
A general note: Immunoblotting shows a protein as a band on a membrane.

For data set [2], the system named is Nrf2. Briefly: ARE luciferase reporter assay (Nrf2 transcriptional activity) in HNDFs. As to conditions: 6 h; for relative ARE luciferase activity, co-treated with HG: ANM 10 μM or NAC 100 μM + HG 30 mM, HG alone 2.5-fold; for relative ARE luciferase activity, compound alone: ANM 10 μM or NAC 100 μM, control 1-fold, HG 2.5-fold. On the procedure:
Therefore, to determine whether ANM augments Nrf2 transcriptional activity, ARE-harboring luciferase reporter assay is used. In FIG. 5E, to determine the Nrf2 transcriptional activity, HNDFs are transiently transfected with ARE promoter construct using lipofectamine and incubated with ANM (10 μM) or NAC (100 μM) in the presence or absence of HG (30 mM) for 6 h. Cell lysates are mixed with luciferase reagents and quantified using an illuminometer. Relative ARE promoter activity is calculated by dividing the relative luciferace unit (RLU) of treated cells by RLU of untreated cells (NG).
Activation of P13K/AKT and mitogen-activated protein kinases (MAPKs), including ERK1/2, JNK/SAPK and p38 MAPK, facilitates Nrf2 transcriptional activation in a variety of human cell lines. […] To elucidate the upstream signaling events involved in ANM-induced Nrf2 transcriptional activity, cells are pre-incubated with pharmacological inhibitors of P13K/AKT (LY294002), ERK1/2 (PD98059), SAPK/JNK (SP600125) and p38MAPK (SB203580) for 2 h and treated with ANM for 6 h in the presence of HG. In FIG. 5G, HNDFs are pre-incubated with AKT, ERK1/2, JNK/SAPK and p38 MAPK inhibitors, including LY294002 (LY, 30 μM), PD98059 (PD, 30 μM), SP600125 (SP, 30 μM) and SB203580 (SB, 30 μM), respectively, for 2 h and then incubated with ANM (10 μM) in the presence of HG (30 mM) for 6 h. Cytoplasmic and nuclear fractions are prepared and subjected to western blot analysis. GAPDH and histone H3 are served as internal controls for the cytoplasmic and nuclear fraction, respectively.
(§1) ARE promoter activity is measured using a dual-luciferase reporter assay system (Promega, Madison, Wis.). […] Cells are then transfected with ARE plasmid (Qiagen, Hilden, Germany) using Lipofectamine 2000 (Invitrogen) and incubated for 36 h. […] The cell lysate is prepared and incubated with luciferase agents and the relative luminescence intensity is quantified using a spectrophotometer (Hidex Oy, Turku, Finland).

The test system of a further data set is HUVECs. Nature of the data set: MTT cell viability in HUVECs. As to conditions: 48 h. On the procedure: Please refer to FIG. 9A˜FIG. 9H, which are views showing HG-induced senescence prevented by ANM in human umbilical vein endothelial cells (HUVECs). As shown in the figures, to further delineate the protective effects of ANM on another cell system, experiments are designed to investigate the protective effect of ANM on HUVECs incubated in media containing either NG or HG alone or with ANM for 48 h. Cell viability is measured by MTT assay. […] Cell viability is determined by MTT assay. Percentage of viable cells are normalized with control cells (NG). […] In addition, in FIG. 9B, cellular senescence is determined by SA-β-gal activity assay. […] In addition, in FIG. 9C and FIG. 9D, total cell lysate is extracted and senescence-associated marker proteins including p16^INK4A, p21^CIP1 total and acetylated p53 and FoxO1 are measured by western blot analysis.
Cell viability is assessed by MTT colorimetric assay. Briefly, HNDFs (2×10^4cells/well) or HUVECs (5×10^4 cells/well) are seeded in a 24-well culture plate. […] The MTT formazan crystals are dissolved in 400 μL of DMSO and the samples are measured at 570 nm (A540) using an ELISA microplate reader (Bio-Tek Instruments, Winooski, Vt.). The percentage of cell viability (%) is calculated as (A570 of treated cells/A570 of untreated cells)×100.

Data set [3] deals with Nrf2. Briefly: ARE luciferase reporter assay in HUVECs. As to conditions: ANM 10 μM or RES 5 μM + HG 30 mM, 6 h; HG alone 0.5-fold, control 1-fold. On the procedure:
Cell lysates are mixed with luciferase reagents and quantified using an illuminometer. Relative ARE promoter activity is calculated by dividing the relative luciferase unit (RLU) of treated cells by RLU of untreated cells (NG). Results are expressed as mean±SEM of three independent experiments. Statistical significance is set at ^ϕP<0.05 as compared to NG vs. HG and *P<0.05 as compared to HG vs. samples.
as §1

“Also recorded” adds a separate entry of the source.

On to `C=C(CCC(C)C1CCC2C3=C(C(=O)C(O)C21C)C1(C)CCC(O)C(C)C1CC3)C(C)C(=O)O` (stereo not shown) [ANM, antcin M], for which, in data set [1], the “HG-induced JNK/SAPK activation” value is on record as “significantly prevents”; the “HG-induced activation of p38 MAPK” value was “significantly prevents”; the “HG-mediated decrease in AKT and ERK1/2 activity (phosphorylation)” value is given as “significantly rescues; also recorded: significantly blocked”. Further, in the data set on Nrf2 [2], the “relative ARE luciferase activity, co-treated with HG” value stood at 8.5 fold and the “relative ARE luciferase activity, compound alone” value is given as 5.8 fold. For the same molecule, in the data set with HUVECs (ANM 10 μM or RES 5 μM + HG 30 mM, HG alone 35.01%), the “number of viable HUVECs under HG” value is 79.78%. Moreover, the “cell viability of HUVECs, compound alone” value in the data set with HUVECs (ANM 10 μM or RES 5 μM) is “does not affect cell viability”. Moreover, in the data set with Nrf2 [3], the “relative ARE luciferase activity in HUVECs co-incubated with HG” value is 4.8 fold.

On to `CC(=O)N[C@@H](CS)C(=O)O` [NAC, N-acetylcysteine, reference compound], for which, in data set [1], the “HG-induced JNK/SAPK activation” value was “significantly prevents”; the “HG-induced activation of p38 MAPK” value was “significantly prevents”; the “HG-mediated decrease in AKT and ERK1/2 activity (phosphorylation)” value is “significantly rescues; also recorded: significantly blocked”. Besides, in the data set on Nrf2 [2], the “relative ARE luciferase activity, co-treated with HG” value is reported as 8.2 fold and the “relative ARE luciferase activity, compound alone” value is 6.3 fold.
